Experimental data reported in patent publication US20240269306A1, “B7H4-TARGETED ANTIBODY-DRUG CONJUGATES AND METHODS OF USE THEREOF” (Mersana Therapeutics, Inc., priority 2021, published 2024).
Residue numbers refer to the chain shown, from its start. “And” between values parts separate entries of the source, which are not always exact repeats. Identical values can stand only once.

Columns and labels:
[1] = tested on: HEK-293-B7-H4 cells cocultured with CTV-labeled CD3+ T cells; assay: T-cell suppression coculture assay with HEK-293-B7-H4 cells (Example 27); format: cell-based, human; details: HEK-293-B7-H4 coculture; antibody 50 nM; 4 day; mean ± SD; two lines of values
Description: (§1) Next day, the media was removed and replaced with T cell media (Iscove's Modified Dulbecco's Medium with 10% FBS and 5% penicillin/streptomycin). […] Frozen human PBMCs (2.5×10^7 cells) were thawed and enriched for CD3+ T cells using Easy Step™ human T cell isolation kit (StemCell Technologies). CD3+ T cells were labeled with CellTrace™ Violet cell proliferation kit (CTV; ThermoFisher Scientific) and adjusted to 2×10^6 cells/mL. CTV-labeled T cells (1×10^5) were added to test article-treated HEK-293-WT or HEK-293-B7-H4 cells, stimulated with Immunocult™ Human CD3/CD28 T Cell Activator (StemCell Technologies), and incubated at 37° C. in 5% CO2. After 4 day of coculture of HEK-293-WT or HEK-293-B7-H4 with CTV-labeled T cells, T cell proliferation was assessed by the dilution of CTV-labeled T cells using flow cytometry. Cocultured cells (CTV-labeled T cells and HEK-293-WT/HEK-293-B7-H4 cells) from each group were transferred to a U-bottom 96-well plate, washed with PBS, stained with live/dead Fixable Aqua dead cell staining dye (ThermoFisher Scientific), and then additionally stained with fluorophore conjugated target specific or isotype control antibodies (FITC anti-human CD45, PE/Cy7 anti-human CD4, PE anti-human CD8). Cells were fixed and surface expression of the proteins of interest was determined by flow cytometry analysis on a MACSQuant flow cytometer. Data analysis was performed by FlowJo software using the following hierarchical flow: 1) single gate, 2) live cells, 3) CD45+ cells, and 4) diluted CTV (compared to unstimulated T cells). Percentage of proliferating CD4+ or CD8+ T cell were calculated using CD4+ combined with diluted CTV and CD8+ combined with diluted CTV, respectively. Data represent the mean (±standard deviation) of triplicate wells for each test article. Table 6 gives the population (%) of live cells, CD45+, proliferating CD4+ T cells, and proliferating CD8+ T cells for each condition.

[2] = target: T1, rat B7-H4 (Rattus norvegicus, UniProt Q501W4); assay: ELISA binding to rat B7-H4 (Example 30); details: mean of two studies
T1 construct: purchased R&D Systems 10085-B7
T1 sequence (Q501W4 25-257): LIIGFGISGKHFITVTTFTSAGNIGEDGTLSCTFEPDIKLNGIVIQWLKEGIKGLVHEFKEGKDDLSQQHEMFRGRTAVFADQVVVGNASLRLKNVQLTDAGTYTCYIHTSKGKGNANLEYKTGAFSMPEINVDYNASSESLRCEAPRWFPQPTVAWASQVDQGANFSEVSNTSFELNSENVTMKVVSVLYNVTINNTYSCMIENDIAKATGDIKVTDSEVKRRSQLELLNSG
Description: (§2) Recombinant human B7-H4 protein (R&D Systems #6576-B7-050) was coated onto the surface of each well of a 96-well plate by incubation with the peptide (1 μg/mL in PBS), overnight at 4° C. The wells were then blocked by incubation with BSA (5% in PBS, containing 0.1% Tween 20 (PBST)) for 1 hour at room temperature. […] The unbound test article was removed by washing with PBST (3×). A secondary anti-human IgG conjugated to HRP (0.16 μg/mL in PBST) was incubated in each well for 1 hour. The unbound secondary antibody was removed by washing with PBST (3×). The HRP substrate, TMB, was added to each well and incubated until a blue color was visible. The reaction was quenched by the addition of sulfuric acid (0.2 N, 100 μL). […] The values were plotted using GraphPad Prism software. EC50 values were determined by four-parameter curve fitting.
(§3) Proteins used in these studies were: human B7-H4 (R&D Systems; 6576-B7-050), monkey B7-H4 (Creative Biomart; VTCN1-1519R), rat (R&D Systems 10085-B7), and mouse (Creative Biomart; VTCN1-1519R).

[3] = target: T2, human B7-H4 (Homo sapiens, UniProt Q7Z7D3); assay: ELISA binding of XMT-1603 and XMT-1604 cytotoxic drug conjugates to human B7-H4 protein (Example 29); details: Table 8
T2 construct: purchased R&D Systems 6576-B7-050
T2 sequence (Q7Z7D3 25-282): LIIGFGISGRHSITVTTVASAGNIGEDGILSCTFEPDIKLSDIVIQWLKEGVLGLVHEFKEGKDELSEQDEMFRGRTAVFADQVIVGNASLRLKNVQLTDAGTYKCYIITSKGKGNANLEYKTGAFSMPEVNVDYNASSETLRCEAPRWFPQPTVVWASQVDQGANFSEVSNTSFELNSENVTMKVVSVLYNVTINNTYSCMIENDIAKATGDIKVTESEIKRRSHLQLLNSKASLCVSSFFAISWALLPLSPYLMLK
Description: as §2

[4] = tested on: HEK-293 cells stably transfected with human B7-H4; assay: Cell surface binding by FACS, HEK-293-B7-H4 cells (Example 32); details: mean of two replicate experiments
Description: (§4) MX-1 cells were grown in DMEM:F12K (Life Technologies) with 10% FBS (Life Technologies) and 1% penicillin/streptomycin (Life Technologies). […] For staining, cells were detached by treatment with Accutase cell detachment solution (Innovative Cell Technologies). The detached cells were triturated in media, and plated in 96 well U-bottom plates, at a density of 50,000 cells in medium (75 μL). […] The cells were washed with ice cold PBS (3×), pelleted at 1,000×RCF between each wash step, and resuspended in RPMI-1640 with 2% goat serum (100 μL) and a secondary fluorescently labeled antibody, Alexa Fluor® 647-labelled goat anti-human IgG (5 μg/mL, Life Technologies) for 1 hour on ice. The cells were washed with ice cold PBS (3×) and resuspended in ice cold PBS with 1% paraformaldehyde (100 μL). The fluorescence per cell was determined by analyzing 5,000 cells for each treatment on the flow cytometer. The median fluorescence value for each treatment was plotted, and EC50 values were calculated with Graphpad Prism software by four-parameter curve fitting.
(§5) HEK-293-B7-H4 cells were grown in EMEM (ATCC), 10% FBS, 1% penicillin/streptomycin, and 3 μg/ml puromycin (Life Technologies) and untransfected HEK-293 cells were grown in EMEM, 10% FBS, 1% penicillin/streptomycin. […] Results are mean values for two replicate experiments for each test article.

[5] = target: T2, human B7-H4; assay: ELISA binding of variant B7-H4 cytotoxic drug conjugates to B7-H4 protein (Example 28); details: Table 7
Description: as §2

[6] = tested on: MX-1 cells; assay: Cell surface binding of STING agonist conjugates by FACS, MX-1 cells (Example 35); parameters: species or system human; details: Table 14
Description: as §4

[7] = target: monkey B7-H4; assay: ELISA binding to monkey B7-H4 (Example 30); details: mean of two studies
Description: as §2, §3

[8] = tested on: MX-1 cells; assay: Cell surface binding by FACS, MX-1 cells (Example 32); parameters: species or system human; details: mean of two replicate experiments
Description: as §4, §5

[9] = tested on: untransfected HEK-293 cells; assay: Cell surface binding by FACS, untransfected HEK-293 cells (Example 32); details: mean of two replicate experiments
Description: as §4, §5

[10] = tested on: HEK-293-WT cells cocultured with CTV-labeled CD3+ T cells; assay: T-cell suppression coculture assay with HEK-293-WT cells (Example 27); format: cell-based, human; details: HEK-293-WT coculture, antibody 50 nM, 4 day
Description: as §1

[11] = target: T2, human B7-H4; assay: ELISA binding of STING agonist conjugates to recombinant human B7-H4 protein (Example 34); details: Table 13
Description: as §2

[12] = target: T3, mouse B7-H4 (Mus musculus, UniProt Q7TSP5); assay: ELISA binding to mouse B7-H4 (Example 30); details: mean of two studies
T3 construct: purchased Creative Biomart VTCN1-1519R
T3 sequence (Q7TSP5 25-257): T1 sequence (Q501W4 25-257) with H109R, E228Q
Description: as §2, §3

[13] = target: T2, human B7-H4; assay: ELISA binding to human B7-H4 (Example 30); details: mean of two studies
Description: as §2, §3

[14] = tested on: STING pathway in THP1-Dual cells co-cultured with MX-1 cancer cells; assay: STING activation, cancer cell/THP1-IRF3-Luciferase reporter cell co-culture assay (Example 36); details: 24 hours, concentrations based on payload, read-out: THP1-Dual cells/MX-1 co-cultures EC50
Description: The induction of the STING pathway in immune cells by B7-H4-targeted STING agonist conjugates was evaluated by a cancer cell/THP1-IRF3-Luciferase reporter cell co-culture assay. MX-1 cells were seeded in 96-well CellBind surface tissue culture plates (17,000 cells/well) and allowed to attach for 4 hours in RPMI-1640 medium with 10% FBS and 1% penicillin/streptomycin. […] THP1-Dual™ Cells (InvivoGen) (50,000 cells) were then added to each well and the incubation continued for 24 hours at 37° C. in a humidified atmosphere of 5% CO2. Cell culture supernatants (20 μL) from each incubated sample was added to resuspended QUANTI-Luc (InvivoGen) (50 μL) and the luminescent signal was measured immediately using a SpectraMax M5 plate reader (Molecular Devices). The EC50 values were determined from the dose response curve.

Compound | % Population CD45+ (gated on live cells) [1] | % Population Live cells (gated on single) [1] | % Population Proliferating CD8+ (gated on single/live cells/CD45+) [1] | EC50 [2] [µM] | EC50 [3] [µM] | EC50 [4] [µM] | EC50 [5] [µM] | EC50 [6] [µM] | EC50 [7] [µM] | EC50 [8] [µM] | EC50 [9] [µM] | % Population Live cells (gated on single) ([10]; mean ± SD of triplicate wells, two unexplained lines of values per population) | % Population CD45+ (gated on live cells) ([10]; mean ± SD, two lines of values) | % Population Proliferating CD4+ (gated on single/live cells/CD45+) ([10]; mean ± SD, two lines of values) | % Population Proliferating CD8+ (gated on single/live cells/CD45+) ([10]; mean ± SD, two lines of values) | EC50 [11] [µM] | EC50 [12] [µM] | EC50 [13] [µM] | EC50 [14] [µM]
Palivizumab | 48.3 ± 4.1% and 50.1 ± 3.7% | 80.1 ± 2.0% and 95.5 ± 2.8% | 3.4 ± 0.5% and 1.1 ± 0.6% | > 0.1 | > 0.1 | > 0.1 | > 0.1 | > 0.2 | > 0.1 | > 0.1 | > 0.1 | 78.2 ± 0.4% and 85.6 ± 11.2% | 69.0 ± 5.1% and 43.0 ± 11.0% | 32.9 ± 2.6% and 22.4 ± 2.3% | 9.5 ± 1.6% and 3.5 ± 0.8% | > 0.1 | > 0.1 | > 0.1 | –
Cc1ccc2c(=O)c3cccc(CC(=O)O)c3oc2c1C [STING agonist] | – | – | – | – | – | – | – | – | – | – | – | – | – | – | – | – | – | – | > 0.1
